The values that follow come from US7220420B2, “Hepatitis C virus-derived peptides capable of inducing cytotoxic T lymphocyte responses” (The Scripps Research Institute, priority 1994, dated 2007).

In series [1] the test system is peptide-pulsed HLA-A2 matched JY EBV-BCL cells.
Series [2] deals with peptide pulsed HLA-A2 matched JY EBV-BCL target cells. The series is classed as cell-based, human.

Read-outs that look alike come from different tables or passages of the source. No end group written: not given here.

Turning to `CC(C)C[C@H](NC(=O)[C@H](C)NC(=O)[C@H](CC(C)C)NC(=O)[C@@H](N)CC(C)C)C(=O)N[C@@H](CC(C)C)C(=O)N[C@@H](CO)C(=O)N[C@@H](CS)C(=O)N[C@@H](CC(C)C)C(=O)N[C@H](C(=O)N[C@H](C(=O)O)C(C)C)[C@@H](C)O` [SEQ ID NO:2], the “peptide specific cytotoxic activity %” value is 29% in series [1] (subject C-2, 2 weeks, E/T 80); 37% in series [1] (subject C-2, 3 weeks, E/T 25); 33% in series [1] (subject C-2, 4 weeks, E/T 7); 64% in series [1] (subject C-2, 4 weeks, E/T 21); 81% in series [1] (subject C-2, 4 weeks, E/T 64); 24% in series [1] (subject C-2, 5 weeks, E/T 2). Besides, the “peptide specific cytotoxic activity %” value in series [1] (subject C-2, 5 weeks, E/T 6) stood at 57%; in series [1] (subject C-2, 5 weeks, E/T 18), 60%; in series [1] (subject C-3, 2 weeks, E/T 80), 19%; in series [1] (subject C-3, 3 weeks, E/T 40), 18%; in series [1] (subject C-3, 4 weeks, E/T 4), 20%; in series [1] (subject C-3, 4 weeks, E/T 11) it was 37%. Besides, the “peptide specific cytotoxic activity %” value is listed as 60% in series [1] (subject C-3, 4 weeks, E/T 33); 35% in series [1] (subject C-3, 5 weeks, E/T 3); 52% in series [1] (subject C-3, 5 weeks, E/T 10); 76% in series [1] (subject C-3, 5 weeks, E/T 30).
As to ILDSFDPLV [SEQ ID NO:42], the “peptide specific cytotoxic activity %” value in series [1] (subject C-2, Exp I, 2 weeks, E/T 40) came to 29%; in series [1] (subject C-2, Exp II (PBMC collected two months after Exp I), 2 weeks, E/T 40) it was 2%; in series [1] (subject C-2, Exp II, 3 weeks, E/T 25), 3%; in series [1] (subject C-2, Exp II, 4 weeks, E/T 10), 10%; in series [1] (subject C-2, Exp II, 4 weeks, E/T 29), 29%; in series [1] (subject C-2, Exp II, 4 weeks, E/T 88) it was 59%. The “peptide specific cytotoxic activity %” value in series [1] (subject C-2, Exp II, 5 weeks, E/T 6) worked out at 20%; in series [1] (subject C-2, Exp II, 5 weeks, E/T 19), 52%; in series [1] (subject C-2, Exp II, 5 weeks, E/T 56) it was 83%.
For the molecule “LLCPAGHAV [SEQ ID NO:26, HCV-1 NS3 aa 1169–1177]”, in series [1] (subject C-3, lines four weeks in culture, varying effector/target cell ratio), the “lysis of target cells by peptide specific CTL lines (FIG. 2)” value is “recognize and lyse HLA A2-matched EBV-BCL in a dose dependent fashion”. For the same molecule, in series [2] (panel of 53 peptides, assay of Example 2), the “represents a CTL epitope (dagger mark)” value was “LLCPAGHAV^†”.
Regarding LLFNILGGWV [SEQ ID NO:35], the “represents a CTL epitope (dagger mark)” value in series [2] is “LLFNILGGWV^†”.
